Patent US20060194835A1, “Compositions and methods for treating or preventing flaviviridae infections” (priority 2005, published 2006)

Key:
[1] = Pharmacokinetics of orally administered celgosivir in rats (plasma castanospermine); format: in vivo, Male Sprague-Dawley rats; conditions: normal rats; loperamide 0.35 mg/kg
Description: The purpose of this study was to evaluate the effect of an anti-diarrheal agent on the pharmacokinetics (PK) of orally administered celgosivir. In addition, the effect of anti-diarrheal agents on celgosivir PK was investigated. The pharmacokinetics of celgosivir was assessed by following the plasma profile of celgosivir's primary metabolite, castanospermine. By way of background, orally administered celgosivir, although well tolerated in humans, does produce side effects in the gastrointestinal tract, including flatulence and mild to moderate diarrhea. Loperamide hydrochloride, an anti-motility agent that is an active ingredient found in some over-the-counter medications used for symptomatic relief of acute and chronic diarrhea, was investigated for its effect on the PK of orally administered celgosivir. […]
At various time-points after celgosivir administration, blood samples were withdrawn from animals via the tail vein. Plasma samples were generated and stored frozen until analyzed. Plasma samples were analyzed for castanospermine, the major metabolite of celgosivir, using LC/MS. […] Celgosivir pharmacokinetics was assessed by following the plasma concentration of its primary metabolite, castanospermine. Pharmacokinetic parameters were calculated according to a two-compartment model with bio-exponential decay using the method of residuals. […]

[2] = in vitro; conditions: bovine
[3] = tested on: BVDV strain NADL; assay: Inhibition of viral release from BVDV-infected MDBK cells (plaque titer); conditions: for EC50 / EC90: Bovine viral diarrhea virus isolates and strains, MDBK, 24 h
[4] = tested on: BVDV; assay: Triple combination checkerboard CPE assay (celgosivir or castanospermine + interferon-α2b + ribavirin), MacSynergy II; format: cell-based, bovine viral diarrhea virus; conditions: for EC50: Bovine viral diarrhea virus isolates and strains, read-out: Average Celgosivir EC50
Description: Each double or triple combination was performed twice. The combination efficacy data were analyzed using the MacSynergy™ II software program as described herein.
Each double or triple combination was performed twice. The combination efficacy data were analyzed using the MacSynergy™ II software program as described herein. The EC50 for each of celgosivir and castanospermine was calculated from the triple combination studies described in Example 6.
Each double or triple combination was performed twice. The combination efficacy data were analyzed using the MacSynergy™ software program as described herein. The EC50 for interferon-α2b was calculated from the triple combination studies described in Example 6.

[5] = tested on: BVDV; assay: Double combination checkerboard CPE assay, MacSynergy II and isobolograms; format: cell-based, bovine viral diarrhea virus
Description: A double combination assay was performed using MDBK cells infected with BVDV in an inhibition of cytopathic effect (CPE) assay as described in Example 2. The double drug combinations were measured by creating a “checkerboard” of drug concentrations used on cell monolayers in microtiter plates, with one drug being titrated horizontally and the other drug titrated vertically, and each double combination being tested at least twice.
The EC50 values of a first test compound derived while in combination with a second test compound were plotted against the corresponding concentration of the second test compound to create an isobole (dose pair). All of the isoboles were plotted in an isobologram to determine the presence of synergy, antagonism or additivity for the combined test compounds. […] The line connecting the monotherapy EC50 values represents the theoretical additivity effect values for the two compounds.
In addition to generating isobolograms, the checkerboard data was imported into MacSynergy™ II software to graph the observed synergy (or additive or antagonism) volumes for the double combinations tested. Briefly, the calculated additive interactions were subtracted from the experimentally determined values to reveal the corresponding drug concentrations at which a synergistic (indicated by positive % values) or antagonistic (indicated by negative % values) effect is observed. The greater the positive percent volume observed, the greater the synergy between the two compounds. […] In contrast, any value about or less than −25 μM^2% or μM(IU/mL) % is indicative of a significant antagonistic effect. The data presented in Table 5 represent volumes of synergy or antagonism with 95% confidence. The confidence level was calculated using a Bonferroni adjustment as a conservative estimate of significance to statistically evaluate the data.

[6] = tested on: BVDV; assay: Protection of MDBK cells from BVDV-induced cytopathicity (CPE reduction, MTS/PMS); format: cell-based, bovine viral diarrhea virus; conditions: Bovine viral diarrhea virus isolates and strains, MDBK, 50% CPE reduction; MOI 0.01
[7] = in vitro; conditions: bovine; remark: listed apart in the source
[8] = Cytotoxicity of test compound in MDBK cells in the absence of viral infection (Example 1); conditions: bovine, MDBK cells, uninfected
[9] = Drug cytotoxicity in uninfected MDBK cells (MTS/PMS); conditions: bovine

For `CCCC(=O)O[C@H]1CN2CC[C@H](O)[C@@H]2[C@@H](O)[C@@H]1O` [Celgosivir, [1S-(1α,6β,7α,8β,8aβ)]-octahydro-1,6,7,8-indolizinetetrol 6-butanoate], the “effect of concomitant anti-diarrheal agent on the PK of celgosivir” value [1] was “no significant effect”, the CC50 at 24 h [2] was > 2000 µM and the EC50 [3] was 2 ± 1.3 µM. The EC90 [3] was 7.6 ± 2.3 µM, the “TI (Therapeutic Index, CC50/EC50)” value ([3]; MOI = 1) was >1000 and the EC50 ([4]; Ribavirin 0 μM, Interferon-α2b 0 IU/mL) was ~6.5 µM. The EC50 ([4]; Ribavirin 0 μM, Interferon-α2b 0.7 IU/mL) was 4.8 ± 0.7 µM, the EC50 ([4]; Ribavirin 0 μM, Interferon-α2b 2.2 IU/mL) was 3.9 ± 0.9 µM and the EC50 ([4]; Ribavirin 0 μM, Interferon-α2b 6.7 IU/mL) was 1.6 ± 0.6 µM. For the same compound, the EC50 ([4]; Ribavirin 0 μM, Interferon-α2b 20 IU/mL) was < 0.4 µM, the EC50 ([4]; Ribavirin 0.37 μM, Interferon-α2b 0.7 IU/mL) was 4.3 ± 1 µM and the EC50 ([4]; Ribavirin 0.37 μM, Interferon-α2b 2.2 IU/mL) was 2.7 ± 1.3 µM. For the same compound, the EC50 ([4]; Ribavirin 0.37 μM, Interferon-α2b 6.7 IU/mL) was 1 ± 0.7 µM, the EC50 ([4]; Ribavirin 0.37 μM, Interferon-α2b 20 IU/mL) was < 0.3 µM and the EC50 ([4]; Ribavirin 1.1 μM, Interferon-α2b 0.7 IU/mL) was 2.9 ± 0.9 µM. For the same compound, the EC50 ([4]; Ribavirin 1.1 μM, Interferon-α2b 2.2 IU/mL) was 2.1 ± 0.2 µM, the EC50 ([4]; Ribavirin 1.1 μM, Interferon-α2b 6.7 IU/mL) was < 0.9 µM and the EC50 ([4]; Ribavirin 1.1 μM, Interferon-α2b 20 IU/mL) was < 0.3 µM. For the same compound, the EC50 ([4]; Ribavirin 3.3 μM, Interferon-α2b 0.7 IU/mL) was < 1 µM, the EC50 ([4]; Ribavirin 3.3 μM, Interferon-α2b 2.2 IU/mL) was < 0.3 µM and the EC50 ([4]; Ribavirin 3.3 μM, Interferon-α2b 6.7 IU/mL) was < 0.3 µM. For the same compound, the EC50 ([4]; Ribavirin 3.3 μM, Interferon-α2b 20 IU/mL) was < 0.3 µM, the “dose-dependent reduction in EC50” value ([4]; upon the addition of increasing concentrations of interferon-α2b) was “up to 26 fold” and the “fold reduction of EC50 of celgosivir” value ([5]; at 2 μM ribavirin) was 3 fold. The “fold reduction of EC50 of celgosivir” value ([5]; at 2.2 μM NM-107) was “more than 8 fold”, the EC50 [6] was 7.7 ± 3 µM and the CC50 [7] was > 300 µM.
In the case of `NC(=O)c1ncn([C@@H]2O[C@H](CO)[C@@H](O)[C@H]2O)n1` [Ribavirin, ribavirin, reference compound], the EC50 [3] is reported as 1.5 ± 1 µM, the EC90 [3] is reported as 5.7 ± 2.7 µM and the CC50 at 24 h [8] is reported as 250 µM. The EC50 [6] was 4.4 ± 2 µM and the CC50 [9] was ≥ 25 µM.
